The results in this text go back to patent publication US20230233569A1 (Revolution Medicines, Inc., priority 2020, published 2023).

In test [1] the test system is K-Ras G12C (NCI-H358 cells). The experiment in a line: Potency assay: pERK (AlphaLISA SureFire or In-Cell Western). Type of test: cell-based. The note with it: Homo sapiens, NCI-H358; read-out: H358 pERK EC50. The method, boiled down: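 NCI-H358 cells plated overnight, then treated 4 h at 37 °C with 10-point 3-fold DMSO dilutions (10 mM top stock), in duplicate. pERK1/2 read by AlphaLISA SureFire Ultra lysate assay or by In-Cell Western with DRAQ5 DNA stain. IC50 from 4-parameter sigmoidal fit of signal vs log concentration.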
A general note: In Alpha technology, singlet oxygen from a donor bead excites a nearby acceptor bead.

The target in another test is NRAS WT (Homo sapiens, UniProt P01111+P62937). Nature of the test: Disruption of BRAF RBD interaction with Ras (FRET / MOA assay, with Cyclophilin A). Format: biochemical. The conditions noted are these: NRAS WT; read-out: NRAS WT FRET data IC50. In a few lines:
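TR-FRET in 25 mM HEPES pH 7.3, 100 mM NaCl, 5 mM MgCl2, 0.1% BSA: 25 μM Cyclophilin A, 12.5 nM His6-Ras-GMPPNP, 50 nM GST-BRAF RBD with compound (10-point 3-fold series from 30 μM), 3 h at 25° C. Anti-His Eu/anti-GST APC added, 1.5 h more; IC50 from decreased FRET ratio versus DMSO.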

The subject of another test is Capan-1 (K-Ras G12V). Nature of the test: CellTiter-Glo cell viability assay, 5-day treatment. Format: cell-based. The note with it: Homo sapiens, CAPAN-1, 120 h, 5-day treatment; read-out: Capan-1 Cell Viability assay data (K-Ras G12V, IC50). The method, boiled down:
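Compounds were dispensed directly onto seeded cells and incubated for 5 days, then plates were equilibrated to room temperature for about 30 minutes before luminescence reading. Signals were expressed as percent of the mean DMSO control and fitted with a four-parameter logistic curve.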

NRAS WT, sequence (P01111 whole entry): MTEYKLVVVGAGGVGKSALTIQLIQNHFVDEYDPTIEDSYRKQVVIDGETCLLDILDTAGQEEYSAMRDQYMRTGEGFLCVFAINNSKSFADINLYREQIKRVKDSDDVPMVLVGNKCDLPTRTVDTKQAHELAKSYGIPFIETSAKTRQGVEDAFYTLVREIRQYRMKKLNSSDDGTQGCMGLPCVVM
NRAS WT, sequence (P62937 whole entry): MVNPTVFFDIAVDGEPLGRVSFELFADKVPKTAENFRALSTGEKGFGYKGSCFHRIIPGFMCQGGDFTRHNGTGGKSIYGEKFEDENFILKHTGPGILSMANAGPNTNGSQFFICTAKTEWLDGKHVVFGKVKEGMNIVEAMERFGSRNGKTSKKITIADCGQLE

With `CCn1c(-c2cccnc2[C@H](C)OC)c2c3cc(ccc31)-c1cc(O)cc(c1)C[C@H](NC(=O)[C@H](C(C)C)N(C)C(=O)[C@H]1CCN(C(=O)OC)C1)C(=O)N1CCC[C@H](N1)C(=O)OCC(C)(C)C2` (atropisomer, axis not shown) [Example A3], the half-maximal effective concentration (EC50) in test [1] was 18 nM. The IC50 on NRAS WT and in the test with Capan-1 (K-Ras G12V) was 10 to 100 nM in each case.

A word on the EC50: it is the concentration at which the effect is half-maximal. Broadly, the IC50 is the midpoint of a concentration-inhibition curve.
